Measured values reported in patent US6689813B2 (Biostatin Gyogyszerkutato-Fejleszto kft., priority 1998, dated 2004).
Where no end group is shown, it is not given here. [ ]: non-standard residue; d: D form.

Tested on: Wistar rats
Experiment: Analgetic action: vegetative (pseudoaffective) reflex responses to mustard oil and capsaicin under urethane anaesthesia
Format: in vivo, rat
Design: Increase in heart rate: unit not given here
Conditions: 10 μg/kg i.p.
Excerpt: This test is based on the synchronous registration of several components of so-called pseudoaffective reflex responses, which can be induced on animals by pain-producing stimuli [Lim, R. K. S.: J. Comp. Neurol 118, 269-294 (1962)] under urethane anaesthesia.
A significant blood pressure increase of 45 mmHg as an average pressor response, heart rate increase of 85 (as an average) and hyperpnoea (the number of respirations increases by 61 per minute as an average) can be observed in control animals on the effect of strong chemonociceptive stimuli (painting of the lower limbs with 1% mustard oil or dropping a capsaicin solution of 100 μg/ml concentration into the eye) under urethane anaesthesia.
The blood pressure, heart rate and respiration of intact Wistar rats (5 to 7 animals in each group, with a body weight of 250 to 350 g) were continuously registered for 40 minutes through an arterial cannula as well as double ramifying trachea cannula. Ten minutes before beginning the measurement, the pretreated animals received intraperitoneally 10 μg/kg of somatostatin (SS), octreotide or TT-232, respectively. Both lower limbs of the animals were painted with mustard oil in the 3rd minute and capsaicin solution was dropped into their eyes in the 23rd minute. The vegetative responses given on these nociceptive stimuli were evaluated by using a specific computer program.

For “D-Phe-Cys-Tyr-D-Trp-Lys-Cys-Thr-NH2 ([dF]CY[dW]KCT-NH2; cysteine pairing not given here) [TT-232]”, the “protection against pseudoaffective reflex triad elicited by mustard oil and capsaicin (in words)” value (10 minutes before mustard oil) was “practically complete protection”, the “Increase in respiration rate” value (after dropping capsaicin solution into the eye, control 47.5) was 17.85 per minute and the “Increase in mean arterial pressure” value (after dropping capsaicin solution into the eye, control 55) was 13 mmHg. The “Increase in heart rate” value (after dropping capsaicin solution into the eye, control 143) was 22.88, the “Increase in mean arterial pressure” value (after painting the feet by mustard oil, control 45.4) was 4.86 mmHg and the “Increase in respiration rate” value (after painting the feet by mustard oil, control 60.75) was 12 per minute. The “Increase in heart rate” value (after painting the feet by mustard oil, control 84.8) was 13.71.
